From US20180271863A1, “TARGETING P2 PURINERGIC RECEPTORS TO TREAT HEPATOCELLULAR CARCINOMA (HCC)” (Baylor College of Medicine, priority 2015, published 2018)

Assays:
Assay type in all cases: cell-based, human
Huh7 cells [1] = test: MTT assay of cell proliferation and viability, Huh7; settings: ATP 100 μM, 18 h
Protocol: (§1) Normal human primary hepatocytes isolated from healthy adults (no known history of HCC) in suspension or freshly-frozen prior to shipment (Cryoport Systems, CA) were purchased from Triangle Research Labs, NC. Fresh hepatocytes were plated on collagen-coated tissue culture plates or glass coverslips in Williams E complete media with additives (10% fetal bovine serum, 2 mM glutamine, […] insulin, 4 ng/ml glucagon, […] transferrin, 2.5 ng/ml sodium selenite, 10,000 U/ml penicillin, […] streptomycin, 50 g/ml gentamycin) for 3 h to ensure hepatocyte adherence to plates. Subsequently, hepatocytes were maintained in Williams E minimal media free from serum and growth factors for 24 h prior to treatment. Human hepatocellular carcinoma derived Huh7, and Hep3B, were cultured in Minimum Essential Medium Eagle (MEM); SNU-387 was cultured in Roswell Park Memorial Institute (RPMI) medium and PLC/PRF/5 cultured in Dulbecco's Modified Eagle's medium (DMEM). All maintenance culture media were supplemented with 10% fetal bovine serum (FBS), L-Glutamine (2 mM), penicillin (100 units/ml) and streptomycin ([…]) at 37° C. and 5% CO2. […]
(§2) Cell viability was determined using the 3-(4, 5-dimethylthiazol-2-yl)-2,5-diphenyltetrazolium (MTT, Sigma) assays. […] After shaking the plates for 30 min, the absorbance at 570 nm was measured (background subtraction at […]).

SNU-387 cells [2] = test: Western blotting of cyclin D3 in SNU-387 cells; settings: ATP 24 hours, serum-free
Protocol: HCC cells (Huh7, Hep3B, SNU-387, and PLC/PRF/5) maintained in serum-free conditions were treated with ATP for 24 hours and total protein extracts were analyzed by Western blotting for cyclin D3 expression. The α-tubulin was utilized as the protein loading control. Data represents mean±SD, n=3-6, *p<0.05 vs untreated (un).
Normal human primary hepatocytes isolated from healthy adults (no known history of HCC) in suspension or freshly-frozen prior to shipment (Cryoport Systems, CA) were purchased from Triangle Research Labs, NC. […]
Total protein extracts were obtained by homogenizing cells in total lysis buffer (50 mM Tris-HCl, pH 7.5, 0.5 M NaCl, 2 mM EGTA, 2 mM EDTA, 1.0% Triton X-100, 0.25% Deoxycholate, 1 m/ml pepstatin, 1.0 m/ml leupeptin, 1.0 m/ml aprotinin, 1.0 mM phenylmethylsulfonyl fluoride, 1.0 mM Dithiothreitol, 2.0 mM activated Na3VO4, and 2.0 mM NaF) and centrifuging at 14,000 rpm for 10 min (4° C.). Equal amounts of total proteins as determined by BCA protein Assay (Pierce, Rockford, Ill.) were analyzed by Western blotting. […]

PLC/PRF/5 cells = test: BrdU incorporation (proliferation) in PLC/PRF/5 cells; settings: SFM 24 hours, ATP 24 hours
Protocol: To determine whether P2 purinergic receptor activation influences HCC cell proliferation, BrdU incorporation was assessed in HCC cells maintained in SFM for 24 hours and treated with ATP for 24 hours. ATP treatment alone was sufficient to induce proliferation in each of these cell lines (Huh7, 34%; Hep3B, 46%; SNU-387, 47% and PLC/PRF/5, 24%), identifying nucleotides as liver cancer cell mitogens (FIG. 7A).
Normal human primary hepatocytes isolated from healthy adults (no known history of HCC) in suspension or freshly-frozen prior to shipment (Cryoport Systems, CA) were purchased from Triangle Research Labs, NC. Fresh hepatocytes were plated on collagen-coated tissue culture plates or glass coverslips in Williams E complete media with additives (10% fetal bovine serum, 2 mM glutamine, […] insulin, 4 ng/ml glucagon, […] transferrin, 2.5 ng/ml sodium selenite, 10,000 U/ml penicillin, […] streptomycin, 50 g/ml gentamycin) for 3 h to ensure hepatocyte adherence to plates. […]
Formalin-fixed and paraffin embedded liver sections from HCC patients were analyzed by immunohistochemistry with anti-P2X3 antibody (Abcam, Cambridge, Mass.). […] BrdU positive cells were counted and expressed as a percentage of the total number of cells in ten randomly selected high-power fields (20×) per coverslips.

Hep3B cells = test: MTT assay of cell proliferation and viability, Hep3B; settings: ATP 100 μM, 18 h
Protocol: as §1, §2

SNU-387 cells [3] = test: MTT assay of cell proliferation and viability, SNU-387; settings: ATP 100 μM, 18 h
Protocol: as §1, §2

Huh7 cells [4] = test: Western blotting for JNK phosphorylation in Huh7 cells; settings: 100 μM, 15 min
Protocol: Applicants have previously shown that extracellular nucleotide-mediated activation of JNK signaling induces cell-cycle progression and proliferation of rat primary hepatocytes in vitro. To determine whether extracellular nucleotides induce JNK signaling in transformed hepatocytes, Huh7 cells were treated with nucleotides for 5, 15 and 30 min and total protein extracts were analyzed by Western blotting for JNK phosphorylation (Ser^Thr/Tyi). ATPγS treatment alone was sufficient to induce JNK phosphorylation as early as 15 min (1.7 fold) (FIG. 10A). […] Total protein extracts were obtained by homogenizing cells in total lysis buffer (50 mM Tris-HCl, pH 7.5, 0.5 M NaCl, 2 mM EGTA, 2 mM EDTA, 1.0% Triton X-100, 0.25% Deoxycholate, 1 m/ml pepstatin, 1.0 m/ml leupeptin, 1.0 m/ml aprotinin, 1.0 mM phenylmethylsulfonyl fluoride, 1.0 mM Dithiothreitol, 2.0 mM activated Na3VO4, and 2.0 mM NaF) and centrifuging at 14,000 rpm for 10 min (4° C.). Equal amounts of total proteins as determined by BCA protein Assay (Pierce, Rockford, Ill.) were analyzed by Western blotting. Blots were probed with antibody specific for a-tubulin or GAPDH to ensure equal loading of proteins in each lane.

## Nc1ncnc2c1ncn2[C@@H]1O[C@H](COP(=O)(O)OP(=O)(O)OP(=O)(O)O)[C@@H](O)[C@H]1O [ATP]
Huh7 cells [1]
  increase in cell proliferation and viability (MTT): 65%
SNU-387 cells [2]
  cyclin D3 protein expression: 1.6 fold
PLC/PRF/5 cells
  proliferation (BrdU incorporation) induced by ATP: 24%
Hep3B cells
  increase in cell proliferation and viability (MTT): 81%
SNU-387 cells [3]
  increase in cell proliferation and viability (MTT): 90%

## Nc1ncnc2c1ncn2[C@@H]1O[C@H](COP(=O)(O)OP(=O)(O)OP(O)(O)=S)[C@@H](O)[C@H]1O [ATPγS]
Huh7 cells [4]
  JNK phosphorylation: 1.7 fold
